Reference: US10590496B2, “Composition for preventing and treating degenerative brain disease using novel lactic acid bacteria” (WEDEA INC., priority 2016, dated 2020)

Key:
CD4^+ CD25^+ cells = assay: Flow cytometry, frequency of CD4^+ CD25^+ cells; assay type: in vivo, Balb/c based male mice; conditions: 100 mg/kg orally for 14 days
Experimental: (§1) Balb/c based male mice (8 weeks old) were divided into a vehicle control group, a group in which 5-aminolevulinic acid (hereinafter, referred as ‘ALA’, 100 mg/kg) was orally administered for 14 days (2 weeks), a group in which Lactobacillus reuteri ELF (hereinafter, referred to as ‘LAB’, 100 mg/kg) was orally administered for 14 days (2 weeks), a group in which a mixture sample (50 mg/kg) of Lactobacillus reuteri ELF and 5-aminolevulinic acid (hereinafter, referred to as ‘ALA+LAB’) was orally administered for 14 days (2 weeks), and a group in which the mixture sample (100 mg/kg) of Lactobacillus reuteri ELF and 5-aminolevulinic acid was orally administered for 14 days (2 weeks).
(§2) After 2 weeks of administration, in order to obtain PBMC in the mice, the blood was extracted using a syringe (3 ml) treated with heparin by a cardiac puncture method. The extracted blood was mixed and treated with 10 ml of ACK solution (a solution obtained by mixing 8.3 g of NH4Cl and 1 g of KHCO3 with demineralized water to which 0.1 Mm EDTA was added) prepared in advance at room temperature for 5 minutes, thereby removing red blood cells. […] Thereafter, the resultants were washed with PBS three times or more, and frequencies (%) of activated CD4^+ CD25^+, CD44^+ CD69^+, CD49b^+ NK1.1^+, and CD25^+ CTLA-4^+ cells were analyzed using a cell quest program of flow cytometry.

[1] = test system: cytochrome c oxidase (COX); assay: COX activity in liver mitochondria; assay type: in vivo, Balb/c based mice; conditions: 100 mg/kg orally for 14 days
Experimental: Balb/c based mice were divided into a vehicle control group, a group in which 5-aminolevulinic acid (100 mg/kg) was orally administered for 14 days (2 weeks), a group in which Lactobacillus reuteri ELF (100 mg/kg) was orally administered for 14 days (2 weeks), and a group in which the mixture sample (100 mg/kg) of Lactobacillus reuteri ELF and 5-aminolevulinic acid was orally administered for 14 days (2 weeks). In order to measure cytochrome c oxidase (COX) activity in the liver mitochondria of the mouse after administration, proteins were extracted from the liver cells of the mouse and measured using a COX activity assay kit (TA100, Toyo B Net).

[2] = test system: IFN-γ, IL-2, IL-4, and IL-10; assay: ELISA absorbance of culture supernatant of spleen cells (cytokine not specified); assay type: in vivo, Balb/c based male mice; conditions: 100 mg/kg orally for 14 days; spleen cells on anti-CD3 mAb, 48 hours
Experimental: as §1
(§3) After 2 weeks of administration, the spleen was harvested from the mice, and spleen cells were isolated with a 100 mesh filter. Before one day of measurement, anti-CD3 mAb (1 μg/ml) was coated on a 96-well plate and kept overnight in a refrigerator at 4° C., and the 96-well plate was washed with D-PBS two times. […] Levels of IFN-γ, IL-2, IL-4, and IL-10 in the culture supernatant were measured by enzyme-linked immuno-sorbent assay (ELISA). […] Thereafter, absorbance was measured at 450 nm in an ELISA reader.

IFN-γ = IFN-γ production amount in cultured spleen cells (ELISA); assay type: in vivo, Balb/c based male mice; conditions: single agents 100 mg/kg, mixture sample 50 and 100 mg/kg, orally for 14 days
Experimental: as §1, §3

NKG2D = assay: Flow cytometry, frequency of NKG2D, bioactive marker of NK cells; assay type: in vivo, Balb/c based male mice; conditions: 100 mg/kg orally for 14 days
activated Th lymphocytes = assay: Flow cytometry of activated Th lymphocytes in PBMC; assay type: in vivo, Balb/c based male mice; conditions: 100 mg/kg orally for 14 days
Experimental: as §1, §2

CD3 T cells = assay: Flow cytometry, frequency of CD3 T cells; assay type: in vivo, Balb/c based male mice; conditions: 100 mg/kg orally for 14 days
[3] = test system: peritoneal cell population; assay: Proliferation of peritoneal cell population (number of lymphocytes); assay type: in vivo, Balb/c based mice; conditions: abdominal cavity, orally for 14 days
Experimental: Balb/c based mice were divided into a vehicle control group, a group in which 5-aminolevulinic acid (100 mg/kg) was orally administered for 14 days (2 weeks), a group in which Lactobacillus reuteri ELF (100 mg/kg) was orally administered for 14 days (2 weeks), a group in which a mixture sample (50 mg/kg) of Lactobacillus reuteri ELF and 5-aminolevulinic acid was orally administered for 14 days (2 weeks), and a group in which the mixture sample (100 mg/kg) of Lactobacillus reuteri ELF and 5-aminolevulinic acid was orally administered for 14 days (2 weeks). Two days before termination of administration, 0.5 ml of 2% normal saline suspension of starch was injected into the abdominal cavity of the mice to thereby be immunized. The mice were sacrificed, and the abdomen was disinfected with alcohol. […] After recovered cells were cooled, washed with the same HBSS solution two times, the number of peritoneal cells existing therein was directly measured using a hemocytometer under a microscope. […] Thereafter, the resultants were washed with PBS three times or more, and frequencies (%) of activated CD11b^+ CD14^+, CD3^+ CD4^+, and CD3^+ CD8^+ cells were analyzed using the Cell Quest program of a flow cytometry, and a total cell count was applied thereto, thereby calculating the absolute number of peritoneal cell population.

IL-4 = IL-4 production amount in cultured spleen cells (ELISA); assay type: in vivo, Balb/c based male mice; conditions: single agents 100 mg/kg, mixture sample 50 and 100 mg/kg, orally for 14 days
Experimental: as §1, §3

Gr-1/CD11b cells = assay: Flow cytometry, frequency of Gr-1/CD11b cells; assay type: in vivo, Balb/c based male mice; conditions: 100 mg/kg orally for 14 days
IL-2 = IL-2 production amount in cultured spleen cells (ELISA); assay type: in vivo, Balb/c based male mice; conditions: single agents 100 mg/kg, mixture sample 50 and 100 mg/kg, orally for 14 days
Experimental: as §1, §3

[4] = test system: nitrogen oxide (NO) in macrophage; assay: Nitrogen oxide (NO) formation in macrophage; assay type: in vivo, Balb/c based mice; conditions: 100 mg/kg orally for 14 days; peritoneal macrophages cultured 72 hours
Experimental: Balb/c based mice were divided into a vehicle control group, a group in which 5-aminolevulinic acid (100 mg/kg) was orally administered for 14 days (2 weeks), a group in which Lactobacillus reuteri ELF (100 mg/kg) was orally administered for 14 days (2 weeks), a group in which a mixture sample (50 mg/kg) of Lactobacillus reuteri ELF and 5-aminolevulinic acid was orally administered for 14 days (2 weeks), and a group in which the mixture sample (100 mg/kg) of Lactobacillus reuteri ELF and 5-aminolevulinic acid was orally administered for 14 days (2 weeks). Three days before termination of administration, after 1.5 ml of 10% proteose peptone (Difco) aqueous solution was administered into the abdominal cavity of the mice, the mice were sacrificed, and the abdomen was disinfected with alcohol. The skin of the abdomen was cut using scissors, and the peritoneum was exposed. Then, 4.5 ml of cooled Hanks' balanced salt solution (HBSS) was injected into the abdominal cavity using a syringe and abdominal massage was performed thereon for 30 seconds, followed by recovering a peritoneal washing fluid using a syringe. […] In addition, after 200 μl of […] reagent II in which 0.06 g of N-1-naphthylene amidehydrochloride was dissolved in 50 ml of distilled water was rapidly added thereto, and stirred, absorbance was measured at 540 nm.

NCC(=O)CCC(=O)O [5-aminolevulinic acid]
frequency of CD4^+ CD25^+ cells as compared to the control group (CD4^+ CD25^+ cells): significantly increased | COX activity in liver mitochondria relative to control group [1]: increased by two times or more | ELISA absorbance at 450 nm relative to control group (NC) [2]: increased two times or more | IFN-γ production amount as compared to control group (NC) (IFN-γ): slightly increased | frequency of NKG2D as compared to the control group (NKG2D): significantly increased | frequency of activated Th lymphocytes in PBMC, increase as compared to the negative control group (activated Th lymphocytes): ≥ 46.2% | frequency of CD3 T cells as compared to the control group (CD3 T cells): increased | number of lymphocytes as compared to the control group [3]: increased | IL-4 production amount as compared to control group (NC) (IL-4): slightly increased | frequency of Gr-1/CD11b cells as compared to the control group (Gr-1/CD11b cells): significantly increased | IL-2 production amount as compared to control group (NC) (IL-2): slightly increased | nitrogen oxide (NO) production amount as compared to the control group (NC) [4]: statistically significantly increased
